In patent publication US5438053A, “Cephem compounds compositions and method” (Takeda Chemical Industries, Ltd., priority 1992, dated 1995) one finds MIC data, which are given here for four compounds.

One experiment concerns P. aeruginosa P9. Put plainly: Minimal inhibitory concentration (MIC) by the agar dilution method, P. aeruginosa P9. It is filed as cell-based. The following applies: Pseudomonas aeruginosa, Mueller-Hinton agar, about 10^4 CFU/spot, 37° C. overnight. As for the experimental part:
(§1) Test Example 1 Minimal Inhibitory Concentrations (MIC)
(§2) The minimal inhibitory concentrations (MIC) of the test compounds were determined by the agar dilution method. More specifically, 0.25 ml each of aqueous solutions of the test compounds diluted by the serial dilution method was poured into petridishes. To each of these petridishes was poured 9.75 ml of Mueller-Hinton agar, followed by mixing. On each of these agar plates was a suspension of the test microorganism (about 10^4 CFU/spot). The lowest concentration of the test compounds inhibiting the growth of test microorganisms, after the incubation at 37° C. overnight, was taken as MIC.

For a further experiment, the system named is P. aeruginosa NC-5. Description: Minimal inhibitory concentration (MIC) by the agar dilution method, P. aeruginosa NC-5. It is filed as cell-based. To be noted: Pseudomonas aeruginosa, NC5, Mueller-Hinton agar, about 10^4 CFU/spot, 37° C. overnight. As for the experimental part: as §1, §2

With `CCO/N=C(\C(=O)N[C@@H]1C(=O)N2C(C(=O)O)=C(CSc3nnnn3Cc3cc(=O)c(O)cn3OC)CS[C@H]12)c1nsc(N)n1` [Ex. 12, Sodium 7β-[2-(5-amino-1,2,4-thiadiazol-3-yl)-(Z)-2-ethoxyiminoacetamido]-3-[[1-[(5-hydroxy-1-methoxy-4-pyridon-2-yl)methyl]-1H-tetrazol-5-yl]thiomethyl]-3-cephem-4-carboxylate], the minimal inhibitory concentration (MIC) against P. aeruginosa P9 and against P. aeruginosa NC-5 was 0.2 µg/mL throughout.
Regarding `CO/N=C(\C(=O)N[C@@H]1C(=O)N2C(C(=O)O)=C(CSc3snc(SCc4cc(=O)c(O)cn4O)c3C#N)CS[C@H]12)c1nsc(N)n1` [Ex. 3, Sodium 7β-[2-(5-amino-1,2,4-thiadiazol-3-yl)-(Z)-2-methoxyiminoacetamido]-3-[[4-cyano-3-[(1,5-dihydroxy-4-pyridon-2-yl)methylthio]isothiazol-5-yl]thiomethyl]-3-cephem-4-carboxylate], the MIC in the experiment with P. aeruginosa P9 turned out to be 0.1 µg/mL; with P. aeruginosa NC-5, 0.05 µg/mL.
Regarding `CO/N=C(\C(=O)N[C@@H]1C(=O)N2C(C(=O)O)=C(CSc3nnnn3Cc3cc(=O)c(O)cn3OC)CS[C@H]12)c1nsc(N)n1` [Ex. 10, Sodium 7β-[2-(5-amino-1,2,4-thiadiazol-3-yl)-(Z)-2-methoxyiminoacetamido]-3-[[1-[(5-hydroxy-1-methoxy-4-pyridon-2-yl)methyl]-1H-tetrazol-5-yl]thiomethyl]-3-cephem-4-carboxylate], the MIC is 0.2 µg/mL in the experiment with P. aeruginosa P9 and 0.1 µg/mL with P. aeruginosa NC-5.
Regarding `CC(C)(O/N=C(\C(=O)N[C@@H]1C(=O)N2C(C(=O)O)=C(CSc3nnnn3Cc3cc(=O)c(O)cn3O)CS[C@H]12)c1nsc(N)n1)C(=O)O` [Ex. 26, Disodium 7β-[2-(5-amino-1,2,4-thiadiazol-3-yl)-(Z)-2-(1-carboxylato-1-methylethoxyimino)acetamido]-3-[[1-[(1,5-dihydroxy-4-pyridon-2-yl)methyl]-1H-tetrazol-5-yl]thiomethyl]-3-cephem-4-carboxylate], the figures for the MIC in the experiment on P. aeruginosa P9 and against P. aeruginosa NC-5 were 0.025 µg/mL and 0.006 µg/mL, respectively.
